Measurements from US11648255B2, “Inhibitors for treatment of hematological malignancies” (Masarykova Univerzita, priority 2020, dated 2023).

Key:
[1] = system: OciLy5 (Small lymphocytic leukemia); experiment: viability by DiOC6/PI staining, ibrutinib and/or GAB1 inhibitors; assay type: cell-based; conditions: ibrutinib 1 μM six days, then GAB1 inhibitors 25 μM 48 hours, DMSO control 81.47
Protocol: (§1) Cells were cultivated for six days (see Material and Method section) and ibrutinib or DMSO were supplemented each second day. […] The analysis was performed using BD FACS Verse flow cytometer (BD Biosciences).

[2] = system: JEKO (Mantle cell lymphoma); experiment: as above; assay type: cell-based; conditions: ibrutinib 1 μM six days, then GAB1 inhibitors 25 μM 48 hours, DMSO control 76.64
Protocol: as §1

[3] = system: ML2 (Acute myeloid leukemia); experiment: as above; assay type: cell-based; conditions: ibrutinib 1 μM six days, then GAB1 inhibitors 25 μM 48 hours, DMSO control 76.92
Protocol: as §1

[4] = system: WSU-NHL (Follicular lymphoma); experiment: viability by DiOC6/PI staining, GAB1 inhibitors; assay type: cell-based; conditions: Homo sapiens, 48 hours, DMSO control 87.34
Protocol: (§2) In a further experiment, 2.5×10^6/ml of RAMOS (derived from Burkitt's lymphoma) or DOHH2 (derived from diffuse large B cell lymphoma) or GRANTA (derived from […]) or WSU-NHL (derived from follicular lymphoma) cells was treated with treated with two different GAB inhibitors (inhGAB1-001 and inhGAB1-004; provided by MD Anderson, USA (Lu Chen et al., PLoS Comput Biol. 2015; 11(1): e1004021.) at final concentration 25 μM, or with an equal volume of vehicle (DMSO) for 48 hours. After that, cells were harvested and stained for viability using DiOC6/PI (3,3′-dihexyloxacarbocyanine iodide together with propidium iodide; catalog numbers: D273 and P3566; both were obtained from Thermo Fisher Scientific). Cells were stained and analyzed according to manufacturer protocol. The analysis was performed using BD FACS Verse flow cytometer (BD Biosciences).

[5] = system: GRANTA (Acute lymphoblastic leukemia); experiment: viability by DiOC6/PI staining, GAB1 inhibitors; assay type: cell-based; conditions: 48 hours, DMSO control 87.24
Protocol: as §2

[6] = system: DOHH2 (GC-DLBCL); experiment: viability by DiOC6/PI staining, GAB1 inhibitors; assay type: cell-based; conditions: Homo sapiens, DOHH-2, 48 hours, DMSO control 81.84
Protocol: as §2

[7] = system: RAMOS (Burkitt's lymphoma); experiment: viability by DiOC6/PI staining, GAB1 inhibitors; assay type: cell-based; conditions: Homo sapiens, 48 hours, DMSO control 95.01
Protocol: as §2

[8] = system: primary CLL cells; experiment: competitive migration assay (transwell) after inhibitor treatment; assay type: cell-based, human; conditions: GAB1 inhibitors 50 μM, ibrutinib 1 μM, 12 hours, migration towards conditioned media (50%) 6 hours, control set to 1
Protocol: HS5 cells (3.5×10^6) were seeded in T75 cultivation flask (TPP) in 12 ml of Dulbecco's Modified Eagle's Medium media (DMEM, catalog number: D6429, Sigma-Aldrich). The next day was original media discarded, the cells attached to the bottom of the flask were washed once with 10 ml of PBS (catalog number: 5493; Sigma Aldrich). Subsequently, the 25 ml of RPMI-1640 (catalog number: R8758, Sigma-Aldrich) media was added to the attached HS5 cells. After 48 hours was this conditioned media collected, purified from cell-debris by 10 minutes centrifugation at 2000 RCF and subsequently diluted with fresh RPMI-1640 media (catalog number: R8758, Sigma-Aldrich) containing 10% FBS (catalog number: FB-1350; Biosera) and 5% penicillin/streptomycin (catalog number: P4333; Sigma Aldrich) to final concentration 50% conditioned media. This media was immediately used for experiments.
To compare the migration, the stained cells (control cells plus one treated variant) were mixed in ratio 1:1 and loaded in transwell inserts (24 well insert, 8 μm pore size; Falcon, Corning) according to manufacturer protocol. […] The ratio of migrated inhibitor-treated cells was calculated by dividing of the percentage of migrated inhibitor-treated cells by percentage of migrated control cells.

[9] = system: MEC1 cells; experiment: viability by DiOC6/PI staining, ibrutinib and/or GAB1 inhibitors; assay type: cell-based; conditions: ibrutinib 1 μM six days, then GAB1 inhibitors 25 μM 48 hours, DMSO control 85.20
Protocol: Cells were cultivated for six days (see Material and Method section) and ibrutinib or DMSO were supplemented each second day. […] After that were cells harvested and stained for viability using DiOC6/PI (3,3′-dihexyloxacarbocyanine iodide together with propidium iodide (catalog numbers: D273 and P3566; both were obtained from Thermo Fisher Scientific). Cells were stained and analyzed according to manufacturer protocol. The analysis was performed using BD FACS Verse flow cytometer (BD Biosciences).

[10] = system: primary CLL cells; experiment: viability by DiOC6/PI staining, flow cytometry; assay type: cell-based; conditions: Homo sapiens, CLL cell, 48 hours, DMSO control 55.67
Protocol: To see the effect of GAB1 inhibitors on malignant B cell viability we treated 5×10^6/ml of primary CLL cells with different doses (10, 25 or 50 μM) of GAB1-001 inhibitor (inhGAB1-001) or GAB1-004 inhibitor (inhGAB1-004) for 48 hours. These inhibitors were obtained from MD Anderson, USA (Lu Chen et al., PLoS Comput Biol. 2015; 11(1): e1004021.). Control cells were treated with an equal volume of DMSO also for 48 hours (culture conditions are described in the Material and Method section). After that, the cells were stained with DiOC6/PI (3,3′-dihexyloxacarbocyanine iodide together with propidium iodide; catalog numbers: D273 and P3566; both were obtained from Thermo Fisher Scientific). Cells were stained and analyzed according to manufacturer protocol. The analysis was performed using BD FACS Verse flow cytometer (BD Biosciences).

[11] = system: primary CLL cells; experiment: Ca2+ flux (Fluo-4AM, flow cytometry) after SDF1 stimulation; assay type: cell-based, human; conditions: 25 μM inhibitor 6 hours, SDF1 100 μg/ml
Protocol: Primary CLL cells (5×10^6/ml) were treated with 25 μM GAB1-001 inhibitor (inhGAB1-001) or GAB1-004 inhibitor (inhGAB1-004) for 6 hours (culture conditions are described in the Material and Method section). These inhibitors were obtained from MD Anderson, USA (Lu Chen et al., PLoS Comput Biol. 2015; 11(1): e1004021.). Control cells were treated with an equal volume of DMSO also for 6 hours. After that were these cells incubated in Hanks Balanced Salt Solution (HBSS, catalog number: H6648, Sigma Aldrich) containing […] Fluo-4AM (catalog number: F14201, Thermo Fisher Scientific) for 30 minutes at 37° C. in the dark. The cells were subsequently prepared for analysis according to instructions provided by the manufacturer of Fluo-4AM. The malignant B cells were subsequently analyzed by flow cytometry (BD FACS Verse, BD Biosciences). Samples were acquired for 60 seconds without stimulation. After that the cells were immediately stimulated by SDF1 100 μg/ml (catalog number: 300-28A, Peprotech). […] To calculate the response to SDF1, we established a baseline fluorescence threshold for each sample (by acquiring samples for 60 seconds without any stimulus). We then calculated the peak Fluo-4AM signal and the percentage of cells with fluorescence intensity above baseline Fluo-4AM signal following stimulation addition.

[12] = system: phospho-GAB1 Y307 in primary CLL cells; experiment: immunoblot of GAB1 phosphorylation after stimulation with SDF1 or conditioned media, with or without plerixafor; assay type: cell-based, human
Protocol: Samples were sonicated 2×10 seconds, amplitude 60% (type: UP100H; Hielscher). […] Electrophoresis was conducted using Biorad Miniprotean system (Biorad) according to manufacturer protocol (voltage: 60-110 V, electrophoresis buffer: 25 mM TRIS, 250 mM glycine, […], pH 8.2; all reagents were obtained from Sigma Aldrich; catalog numbers: L3771, T6066, H1758, G8898). Proteins were subsequently transferred to the PVDF membrane (0.45 μm pore size, Millipore) using Biorad Miniprotean system (Biorad) according to manufacturer protocol (blot buffer: 20% methanol, 192 mM glycine, 25 mM TRIS; all reagents were obtained from Sigma Aldrich; catalog numbers: 34860, T6066, H1758, G8898).
HS5 cells (3.5×10^6) were seeded in T75 cultivation flask (TPP) in 12 ml of Dulbecco's Modified Eagle's Medium media (DMEM, catalog number: D6429, Sigma-Aldrich). The next day was original media discarded, the cells attached to the bottom of the flask were washed once with 10 ml of PBS (catalog number: 5493; Sigma Aldrich). Subsequently, the 25 ml of RPMI-1640 (catalog number: R8758, Sigma-Aldrich) media was added to the attached HS5 cells. […] This media was immediately used for experiments.
Primary CLL cells (5×10^6/ml) were cultured as described in Material and Method section. […]

Compound | % of viability [1] | % of viability [2] | % of viability [3] | viability at 25 µM [4] | viability at 25 µM [5] | viability at 25 µM [6] | viability at 25 µM [7] | Ratio of migrated cells [8] | % of viability [9] | viability at 10 µM [10] | viability at 25 µM [10] | viability at 50 µM [10] | Ca2+ flux after treatment with SDF1 (FIG. 2G) [11] | GAB1 phosphorylation on conditioned media in the presence of plerixafor (FIG. 1A) ([12]; plerixafor 5 μg/ml 8 hours, 50% conditioned media 5 minutes) | GAB1 phosphorylation on stimulation (FIG. 1A) ([12]; SDF1 100 ng/ml, 5 minutes)
O=S(=O)(NCc1csc2ccc(Cl)cc12)c1cc(S(=O)(=O)c2ccccc2)cs1 [inhGAB1-001] | 53.12% | 2.88% | 6.86% | 29.4% | 4.49% | 51.9% | 50.3% | 0.79 | 67.00% | 52.8% | 50.3% | 31% | decreases the Ca^2+ flux | – | –
O=c1[nH]nc(SCc2csc(-c3ccccc3)n2)n1Cc1ccco1 [inhGAB1-004] | 62.46% | 49.20% | 28.07% | 70.2% | 74.1% | 72.3% | 74.6% | 0.75 | 74.52% | 44.7% | 42.6% | 37.4% | decreases the Ca^2+ flux | – | –
c1cc(CN2CCCNCCNCCCNCC2)ccc1CN1CCCNCCNCCCNCC1 [plerixafor] | – | – | – | – | – | – | – | – | – | – | – | – | – | also led to GAB1 phosphorylation | –
C=CC(=O)N1CCC[C@@H](n2nc(-c3ccc(Oc4ccccc4)cc3)c3c(N)ncnc32)C1 [ibrutinib] | 80.33% | 60.14% | 68.93% | – | – | – | – | – | 81.66% | – | – | – | – | – | –
SDF1: Stromal cell-derived factor 1, chemokine ligand used as stimulus | – | – | – | – | – | – | – | – | – | – | – | – | – | – | phosphorylation and thus activation of GAB1 protein
